Tests used:
[1] = biological target: T1, RPN13 (Homo sapiens, UniProt Q16186); assay: Rpn13 immunoblot in MM.1S-CRBN KO cells; format: cell-based; parameters: endogenous in cells; host or cells: MM.1S; MM.1S-CRBN KO; RPMI-8226; ANBL6.BR; settings: 400 nM, 16 hours, versus DMSO
Description: FIGS. 19A-19I show the exemplary design and characterization of exemplary Rpn13 degrader WL40. […] WL40 was created by linking the Rpn13 inhibitor RA190 to the IMiD thalidomide as a ligand for the CRBN E3 ligase via a PEG linker. […] FIG. 19C is a schematic cartoon for the novel AlphaScreen assay to measure the binding activity of inhibitor with RPN13 proteins. […] FIG. 19E depicts immunoblot analysis of multiple myeloma 1S (MM.1S) cells, which were treated with WL40 or RA190 at the indicated concentrations and time periods; protein lysates were subjected to the immunoblot analysis using anti-Rpn13 or anti-tubulin Abs. FIG. 19F depicts flow cytometry analysis of MM.1S cells, which were treated with DMSO control, WL40 (400 nM), or RA190 (500 nM) for 16 hours; cells were then washed and stained with Rpn13 Ab conjugated with AlexaFluor-647, followed by the flow cytometry analysis. Isotype Ab conjugated to AlexaFluor-647 was used as control for non-specific binding. Data was quantified using FACS Diva (BD Biosciences, USA) and FlowJo (FlowJo LLC, USA). […]
To confirm that CRBN presence is a prerequisite for the function of WL40 in cells, CRBN-knockout (KO) MM.1S cells^27, 38 were utilized, and the effect of WL40 on Rpn13 degradation was examined. […] GFPu-1 cells were treated with WL40, and GFP levels were then analyzed using immunoblotting. […]

[2] = biological target: T1, RPN13; assay: RPN13 AlphaScreen (Rpn13 / biotinylated polyUb recognition); format: binding; settings: RA190 as positive control
Description: Assays were performed with minimal modifications from the manufacturer's protocol (PerkinElmer, USA). All reagents were diluted in 50 mM HEPES, 150 mM NaCl, 0.1% w/v BSA, 0.01% w/v Tween20, pH 7.5, and allowed to equilibrate to room temperature prior to addition to plates. After addition of Alpha beads to master solutions, all subsequent steps were performed under low light conditions. A 2× solution of components with final concentrations of RPN13 at 670 nM, Ni-coated Acceptor Bead at 20 μg/ml, and 5 nM biotinylated-poly-Ub K48-linked chains (UCB-230, BostonBiochem, USA) was added in 10 μL to 384-well plates (AlphaPlate-384, PerkinElmer, USA). Plates were spun down at 150×g, and 100 nL of compound in DMSO from stock plates were added by pin transfer using a Janus Workstation (PerkinElmer, USA). The streptavidin-coated donor beads (20 μg/ml final) were added, as with previous the solution, in a 2×, 10 μL volume. Following this addition, plates were sealed with foil to prevent light exposure and evaporation. The plates were spun down again at 150 g. Plates were incubated at room temperature for 1 hour, and then read on an Envision 2104 (PerkinElmer, USA), using the manufacturer's protocol.
Several experiments were performed to confirm the specificity of WL40. […] It was then examined whether the bivalent molecule, WL40, can bind to Rpn13. […]

T1 sequence (Q16186 whole entry): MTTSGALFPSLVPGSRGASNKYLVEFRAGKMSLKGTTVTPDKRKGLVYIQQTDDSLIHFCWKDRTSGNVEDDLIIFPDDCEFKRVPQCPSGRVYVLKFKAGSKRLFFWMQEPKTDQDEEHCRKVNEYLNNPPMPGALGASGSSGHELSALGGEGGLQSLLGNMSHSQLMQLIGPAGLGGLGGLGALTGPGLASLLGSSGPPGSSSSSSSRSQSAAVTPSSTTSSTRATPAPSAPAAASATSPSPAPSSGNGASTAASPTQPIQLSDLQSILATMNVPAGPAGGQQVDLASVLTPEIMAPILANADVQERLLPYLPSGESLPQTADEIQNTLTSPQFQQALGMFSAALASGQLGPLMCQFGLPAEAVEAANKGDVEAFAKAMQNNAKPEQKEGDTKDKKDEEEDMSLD

For `O=C1CCC(N2C(=O)c3cccc(NCCOCCOCCOCCC(=O)N[C@@H](Cc4ccccc4)C(=O)N4C/C(=C\c5ccc(Cl)c(Cl)c5)C(=O)/C(=C/c5ccc(Cl)c(Cl)c5)C4)c3C2=O)C(=O)N1` (some centres unmarked) [WL40], the “Rpn13 levels (immunoblot)” value [1] was “no decrease in Rpn13 levels” and the Rpn13 binding [2] was “binds to Rpn13”.
